According to the supplement of paper PMC10307832:

What was measured:
Assay in all cases: relative viability (nuclei count vs DMSO), 5 days (fraction); higher = more cells survive
H3255 = test system: H3255
Summary of the method: (§1)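 Nuclei were stained with Hoechst during a one-step fixation (final 0.05% Triton X-100, 1% formaldehyde, 1 ug/ml Hoechst) carried out 5 days after dosing, then counted on 4× images. The cells, lung cancer lines in 1536-well plates, had been dosed by pin tool the day after seeding with one drug alone or a fixed anchor-drug dose plus five library-drug doses (not always all listed) in √10 steps. Relative viability is the nuclei count in treated wells divided by that in vehicle wells, and each value is the median of duplicate plates.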

NCI-H1650 = test system: NCI-H1650
Summary of the method: as §1

LU99A = test system: LU99A
Summary of the method: as §1

COR-L23 = test system: COR-L23
Summary of the method: as §1

LCLC-97TM1 = test system: LCLC-97TM1
Summary of the method: as §1

PC-14 = test system: PC-14
Summary of the method: as §1

NCI-H460 = test system: NCI-H460
Summary of the method: as §1

PC-3 [JPC-3] = test system: PC-3 [JPC-3]
Summary of the method: as §1

SW 1573 = test system: SW 1573
Summary of the method: as §1

NCI-H1793 = test system: NCI-H1793
Summary of the method: as §1

NCI-H1944 = test system: NCI-H1944
Summary of the method: as §1

NCI-H2347 = test system: NCI-H2347
Summary of the method: as §1

LK-2 = test system: LK-2
Summary of the method: as §1

NCI-H1651 = test system: NCI-H1651
Summary of the method: as §1

NCI-H838 = test system: NCI-H838
Summary of the method: as §1

RERF-LC-KJ = test system: RERF-LC-KJ
Summary of the method: as §1

201T = test system: 201T
Summary of the method: as §1

NCI-H727 = test system: NCI-H727
Summary of the method: as §1

A-427 = test system: A-427
Summary of the method: as §1

NCI-H23 = test system: NCI-H23
Summary of the method: as §1

`Clc1ccc(Nc2nnc(Cc3ccncc3)c3ccccc23)cc1` [Vatalanib] + CC1(C)CCC(c2ccc(Cl)cc2)=C(CN2CCN(c3ccc(C(=O)NS(=O)(=O)c4ccc(N[C@H](CCN5CCOCC5)CSc5ccccc5)c(S(=O)(=O)C(F)(F)F)c4)cc3)CC2)C1 [Navitoclax] (partner 0.5 µM) was tested, and the relative viability (H3255; first compound 0.04 µM) was 0.608, the relative viability (H3255; first compound 0.1265 µM) was 0.469 and the relative viability (H3255; first compound 0.4 µM) was 0.458. For the same compound, the relative viability (H3255; first compound 1.265 µM) was 0.444, the relative viability (H3255; first compound 4 µM) was 0.521 and the relative viability (NCI-H1650; first compound 0.04 µM) was 1.32. The relative viability (NCI-H1650; first compound 0.1265 µM) was 1.2, the relative viability (NCI-H1650; first compound 0.4 µM) was 1.41 and the relative viability (NCI-H1650; first compound 1.265 µM) was 0.951. The relative viability (NCI-H1650; first compound 4 µM) was 1.17, the relative viability (LU99A; first compound 0.04 µM) was 0.763 and the relative viability (LU99A; first compound 0.1265 µM) was 0.719. It also gave a relative viability (LU99A; first compound 0.4 µM) of 1.11, a relative viability (LU99A; first compound 1.265 µM) of 0.855 and a relative viability (LU99A; first compound 4 µM) of 0.859. For the same compound, the relative viability (COR-L23; first compound 0.04 µM) was 1.1, the relative viability (COR-L23; first compound 0.1265 µM) was 0.972 and the relative viability (COR-L23; first compound 0.4 µM) was 1.24. It also gave a relative viability (COR-L23; first compound 1.265 µM) of 0.778, a relative viability (COR-L23; first compound 4 µM) of 1.01 and a relative viability (LCLC-97TM1; first compound 0.04 µM) of 0.631. The relative viability (LCLC-97TM1; first compound 0.1265 µM) was 0.511, the relative viability (LCLC-97TM1; first compound 0.4 µM) was 0.488 and the relative viability (LCLC-97TM1; first compound 1.265 µM) was 0.401. It also gave a relative viability (LCLC-97TM1; first compound 4 µM) of 0.38, a relative viability (PC-14; first compound 0.04 µM) of 1.04 and a relative viability (PC-14; first compound 0.1265 µM) of 0.941. It also gave a relative viability (PC-14; first compound 0.4 µM) of 1.07, a relative viability (PC-14; first compound 1.265 µM) of 1.03 and a relative viability (PC-14; first compound 4 µM) of 0.997. The relative viability (NCI-H460; first compound 0.04 µM) was 1.17, the relative viability (NCI-H460; first compound 0.1265 µM) was 1.09 and the relative viability (NCI-H460; first compound 0.4 µM) was 1.11. It also gave a relative viability (NCI-H460; first compound 1.265 µM) of 1.04, a relative viability (NCI-H460; first compound 4 µM) of 1.11 and a relative viability (PC-3 [JPC-3]; first compound 0.04 µM) of 0.725. The relative viability (PC-3 [JPC-3]; first compound 0.1265 µM) was 0.832, the relative viability (PC-3 [JPC-3]; first compound 0.4 µM) was 0.848 and the relative viability (PC-3 [JPC-3]; first compound 1.265 µM) was 0.739. It also gave a relative viability (PC-3 [JPC-3]; first compound 4 µM) of 0.757, a relative viability (SW 1573; first compound 0.04 µM) of 0.938 and a relative viability (SW 1573; first compound 0.1265 µM) of 1.03. For the same compound, the relative viability (SW 1573; first compound 0.4 µM) was 1.02, the relative viability (SW 1573; first compound 1.265 µM) was 0.872 and the relative viability (SW 1573; first compound 4 µM) was 0.969. For the same compound, the relative viability (NCI-H1793; first compound 0.04 µM) was 0.452, the relative viability (NCI-H1793; first compound 0.1265 µM) was 0.435 and the relative viability (NCI-H1793; first compound 0.4 µM) was 0.498. The relative viability (NCI-H1793; first compound 1.265 µM) was 0.318, the relative viability (NCI-H1793; first compound 4 µM) was 0.502 and the relative viability (NCI-H1944; first compound 0.04 µM) was 1.01. It also gave a relative viability (NCI-H1944; first compound 0.1265 µM) of 1.02, a relative viability (NCI-H1944; first compound 0.4 µM) of 1.06 and a relative viability (NCI-H1944; first compound 1.265 µM) of 1.08. For the same compound, the relative viability (NCI-H1944; first compound 4 µM) was 1.06, the relative viability (NCI-H2347; first compound 0.04 µM) was 0.861 and the relative viability (NCI-H2347; first compound 0.1265 µM) was 0.78. The relative viability (NCI-H2347; first compound 0.4 µM) was 0.885, the relative viability (NCI-H2347; first compound 1.265 µM) was 0.739 and the relative viability (NCI-H2347; first compound 4 µM) was 0.796. It also gave a relative viability (LK-2; first compound 0.04 µM) of 0.883, a relative viability (LK-2; first compound 0.1265 µM) of 0.824 and a relative viability (LK-2; first compound 1.265 µM) of 0.955. The relative viability (LK-2; first compound 4 µM) was 0.807, the relative viability (NCI-H1651; first compound 0.04 µM) was 0.928 and the relative viability (NCI-H1651; first compound 0.1265 µM) was 1.09. For the same compound, the relative viability (NCI-H1651; first compound 0.4 µM) was 1.11, the relative viability (NCI-H1651; first compound 1.265 µM) was 1.02 and the relative viability (NCI-H1651; first compound 4 µM) was 1.08. The relative viability (NCI-H838; first compound 0.04 µM) was 1.08, the relative viability (NCI-H838; first compound 0.1265 µM) was 1.11 and the relative viability (NCI-H838; first compound 0.4 µM) was 1.19. It also gave a relative viability (NCI-H838; first compound 1.265 µM) of 1.07, a relative viability (NCI-H838; first compound 4 µM) of 1.18 and a relative viability (RERF-LC-KJ; first compound 0.04 µM) of 1.1. It also gave a relative viability (RERF-LC-KJ; first compound 0.1265 µM) of 0.959, a relative viability (RERF-LC-KJ; first compound 0.4 µM) of 0.951 and a relative viability (RERF-LC-KJ; first compound 1.265 µM) of 0.79. For the same compound, the relative viability (RERF-LC-KJ; first compound 4 µM) was 0.822, the relative viability (201T; first compound 0.04 µM) was 1.17 and the relative viability (201T; first compound 0.1265 µM) was 1.27. For the same compound, the relative viability (201T; first compound 0.4 µM) was 1.25, the relative viability (201T; first compound 1.265 µM) was 1.25 and the relative viability (201T; first compound 4 µM) was 1.21. It also gave a relative viability (NCI-H727; first compound 0.04 µM) of 0.428, a relative viability (NCI-H727; first compound 0.1265 µM) of 0.403 and a relative viability (NCI-H727; first compound 0.4 µM) of 0.516. The relative viability (NCI-H727; first compound 1.265 µM) was 0.407, the relative viability (NCI-H727; first compound 4 µM) was 0.46 and the relative viability (A-427; first compound 0.04 µM) was 0.998. The relative viability (A-427; first compound 0.1265 µM) was 0.92, the relative viability (A-427; first compound 0.4 µM) was 0.867 and the relative viability (A-427; first compound 1.265 µM) was 0.794. For the same compound, the relative viability (A-427; first compound 4 µM) was 0.98, the relative viability (NCI-H23; first compound 0.04 µM) was 0.772 and the relative viability (NCI-H23; first compound 0.1265 µM) was 0.699. It also gave a relative viability (NCI-H23; first compound 0.4 µM) of 0.841, a relative viability (NCI-H23; first compound 1.265 µM) of 0.745 and a relative viability (NCI-H23; first compound 4 µM) of 0.825.
